Consider 1 molecule from ChEMBL document CHEMBL4673311, “Development of pyrimidone D1 dopamine receptor positive allosteric modulators” (Bioorg Med Chem Lett, 2021).

The target in assay [1] is D(1B) dopamine receptor (Homo sapiens) (UniProt P21918). The assay is described as follows: Positive allosteric modulator activity at human dopamine D5 receptor expressed in CHO-K1 cells assessed as fold change in dopamine Emax for beta-arrestin2 recruitment at 50 uM incubated for 90 mins by PathHunter assay relative to control. In kind it is cell-based. As to conditions: filed as positive allosteric modulator.
D(1B) dopamine receptor (Homo sapiens), sequence (P21918 whole entry): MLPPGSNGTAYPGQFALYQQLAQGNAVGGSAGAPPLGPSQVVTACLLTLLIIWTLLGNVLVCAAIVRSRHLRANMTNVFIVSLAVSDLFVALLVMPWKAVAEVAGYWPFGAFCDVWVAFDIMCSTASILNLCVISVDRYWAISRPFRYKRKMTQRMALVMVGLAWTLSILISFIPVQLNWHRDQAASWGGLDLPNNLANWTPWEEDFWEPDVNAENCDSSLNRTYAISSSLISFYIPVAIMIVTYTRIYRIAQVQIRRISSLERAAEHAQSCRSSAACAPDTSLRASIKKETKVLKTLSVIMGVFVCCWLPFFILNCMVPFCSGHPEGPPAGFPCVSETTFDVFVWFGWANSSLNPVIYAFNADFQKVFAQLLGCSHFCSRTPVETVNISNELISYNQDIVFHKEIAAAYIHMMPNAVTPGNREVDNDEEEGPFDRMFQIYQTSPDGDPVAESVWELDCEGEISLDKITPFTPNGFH

The target is the same in assay [2]. The assay is described as follows: Positive allosteric modulator activity at human dopamine D5 receptor expressed in CHO-K1 cells assessed as fold change in dopamine EC50 for beta-arrestin2 recruitment at 50 uM incubated for 90 mins by PathHunter assay relative to control. In kind it is cell-based. As to conditions: filed as positive allosteric modulator. On the technique in general: Activated receptors often draw arrestin, which recruitment assays turn into a signal.

Consider `Cn1c2ccccc2c(=O)c2c(=O)n(-c3ccccc3)c(C3CCCCC3)nc21`, for which the fold change (FC) in assay [1] was 1.5; in assay [2], 2.84.
